Columns and labels:
[1] = In vitro stability in human plasma (LC-MS); assay type: in vitro ADME
Method: (§1) The final concentration of the test compound in the assay is 5 micromolar. […] C. The 100 microlitres of aliquot at time point was removed and diluted with ice cold acetonitrile containing IS (200 µL) to stop the reactions. Samples are centrifuged at 10,000 RPM for 5 minutes to precipitate proteins. Supernatants are transferred to micro centrifuge tubes and stored at −20° C. for analysis of LC/MS/MS. The percent parent remaining of the test substance is calculated as ratio of peak area at each time point to peak area ratio at zero min, multiplied by 100.
(§2) API 4000, ESI Agilent 1100 column: Gemini Nx 100 mm×4.6 mm 5.μ; column temperature: 30° C.; eluent A: 0.1% formic acid in water, eluent B: acetonitrile; gradient: 0-2.5 min 95% A, 5% B; 2.5-2.6 min 5% A, 95% B; 2.6-4.2 min 95% A, 5% B; flow rate: 0.8 ml/min; ESI. Q1:464.098, Q3:144.255

[2] = Stability in simulating intestinal fluid (SIF); assay type: physicochemical; conditions: SIF pH 7.4, up to 120 min
Method: (§3) On completion of incubation period, the solution is centrifuged and supernatant is taken. To the supernatant, ice cold acetonitrile containing IS is added, vortexed and injected into LCMS/MS.
as §2
(§4) SIF/SGF: 2.38 g of SIF original powder (biorelavant media) is dissolved in 1 L of milliQ water. The pH of the solution is adjusted for SIF (7.4) and SGF (2.2) with 0.1N HCl. The ratios of the peak areas (F) at the respective time points in relation to the peak areas at the starting time are calculated. […] The peak area (F) is directly correlated to the amount of test compound which is quantified by the LC MS method.
(§5) In simulating intestinal and gastric fluid, the area of the formula B compared with zero minute area to 120 min.

[3] = In vitro stability in rat plasma (LC-MS); assay type: in vitro ADME
Method: as §1, §2

[4] = Stability in simulating gastric fluid (SGF); assay type: physicochemical; conditions: SGF pH 2.2, up to 120 min
Method: as §3, §2, §4, §5

[5] = system: plasma protein; test: Plasma protein binding (dialysis), mouse; assay type: in vitro ADME
Method: (§6) A compound solution (1 mM in DMSO) (5 μL), according to the invention is added to the respective plasma matrices of rat or human or mouse (1 ml).
(§7) Add 150 μl of phosphate buffer to receiving side of the dialysis well. […] Precipitate with Acetonitrile and dilute samples prior to analysis in 1.5 ml polypropylene tubes. Remove 50 μl from the sample side of dialysis well and add 50 μl of phosphate buffer+300 μl of acetonitrile containing IS. Remove 50 μl from the buffer side of the dialysis well and add 50 μl of respective matrix plasma+300 μl of ACN. Then vortexed and centrifuged for 5 min, and supernatant is taken and injected into LCMS.
(§8) Different test concentration ranging from 0.1 μM to 20 μM are made in methanol:water (90:10). Test solutions are added to the premixed matrix containing plasma:phosphate buffer (50:50). Precipitate with 300 μl of ice cold acetonitrile containing IS, vortexes and centrifuged. Supernatant is taken and injected into LCMS.
(§9) Percentage of plasma protein binding was obtained via Equation (2): % Fraction unbound=(concentration on the buffer side/concentration on the sample side)*100

[6] = Permeability in caco2 system; assay type: in vitro ADME; conditions: human, Caco-2; caco2
[7] = system: caco2 system; test: Permeability in caco2 system; assay type: in vitro ADME; conditions: caco2, efflux >2
[8] = system: plasma protein; test: Plasma protein binding (dialysis), human; assay type: in vitro ADME
Method: as §6, §7, §8, §9

[9] = Intravenous and oral excretion profile in Wistar rats; assay type: in vivo; conditions: after i.v. administration, first measurement point
Method: On the day before administration of the substance, a catheter for obtaining blood is implanted in the jugular vein of the experimental animals (male Wistar rats, body weight 200-250 g) under Isoflurane. anesthesia.
Urine and faeces are taken collected from metabolic cages over the course of 144 h after administration of the substance. The administration volume is 10 ml/kg for oral and 1 ml/kg for IV in male Wistar rats. Intravenous administration is via a formulation of 2% N—N Dimethyl acetamide/ethanol 10%/PEG400(30%)/water for IV injection (58%) and via Tween80/PEG400/sterile water in the case of oral administration. Urine and faeces collection is 0-4, 4-8, 8-24, 24-48, 48-72, 72-96, 96-120, 120-144 in the case of IV and for oral administration.
Urine and faeces was processed and IS containing Acetonitrile is added to a defined urine/faeces and precipitated. After centrifugation, compound formula (B) and, where appropriate, known cleavage products of the compound formula (B) in the supernatant are determined quantitatively using a suitable LC/MS-MS method.
The measured urine and faeces concentrations are used to calculate parameters of the test substance and of the active ingredient compound (A) liberated there from, such as AUC and Cmax.
Acetonitrile containing IS is added to the study samples, calibration samples and QCs, and the protein is precipitated using acetonitrile. […]

- Amount of test product detected (conversion to rivaroxaban from zero min) [1]: Neglible
- Stability at simulating intestinal conditions [2]: stable
- Amount of test product detected (conversion to rivaroxaban from zero min) [3]: min. Neglible
- Conclusion (stability in SGF) [4]: is stable
- Observation: amount of test product [5]: Not quantificable amount of test
- Observation: formed Rivaroxaban bound to plasma protein [5]: moderate-High bound to plasma
- Papp A→B [6]: 17.4 ×10⁻⁶ cm/s
- Interpretation: Pgp substrate [7]: observed to be a Pgp substrate.
- Observation: amount of test product [8]: Not quantificable amount of test
- Observation: formed Rivaroxaban bound to plasma protein [8]: Rivaroxaban found to be High
- Detectability of unchanged test substance in urine and faeces [9]: no longer detectable
SMILES: O=CN(C[C@H]1CN(c2ccc(N3CCOCC3=O)cc2)C(=O)O1)C(=O)c1ccc(Cl)s1 [compound formula (B), 5-chloro-N-formyl-N-({(5S)-2-oxo-3-[4-(3-oxomorpholin-4-yl)phenyl]-1,3-oxazolidin-5-yl}methyl)thiophene-2-carboxamide]

From patent publication US20160251342A1, “ALDEHYDE DERIVATIVE OF SUBSTITUTED OXAZOLIDINONES” (WANBURY LTD., priority 2012, published 2016)
